Laboratory results as given in PubChem BioAssay (NCI).
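Growth conditions: 96-well plates. Treatment: test compound, 48 hours, 5 concentrations. Analysis: linear interpolation between bracketing concentrations; unreached endpoints set to highest concentration. GI50 is the concentration that inhibits growth by half. The concentration for full growth arrest is given as TGI.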

What was measured:
Assay in all cases: inhibition of tumour cell growth, NCI panel, 48 h
[1] = system: OVCAR-4 ovarian
[2] = system: CAKI-1 renal
[3] = system: SK-MEL-5 melanoma
[4] = system: SF-539 CNS
[5] = system: SW-620 colon
[6] = system: UO-31 renal
[7] = system: SNB-19 CNS
[8] = system: NCI-H460 lung
[9] = system: HOP-62 NSCLC
[10] = system: IGROV1 ovarian

CN1C(=O)C(Cl)(C(Cl)(Cl)S(=O)(=O)O)C(=O)c2ccccc21 (stereo not given)
TGI [1]: > 100 µM | TGI [2]: > 100 µM | TGI [3]: > 100 µM | TGI [4]: > 100 µM | TGI [5]: > 100 µM | TGI [6]: > 100 µM | TGI [7]: > 100 µM | TGI [8]: > 100 µM | TGI [9]: > 100 µM | TGI [10]: > 100 µM

O=C(OC[C@H]1O[C@@H](OC(=O)c2cc(O)c(O)c(O)c2)[C@H](OC(=O)c2cc(O)c(O)c(O)c2)[C@@H](OC(=O)c2cc(O)c(O)c(O)c2)[C@@H]1OC(=O)c1cc(O)c(O)c(O)c1)c1cc(O)c(O)c(O)c1
TGI [1]: 41.1 µM | TGI [2]: 85.6 µM | TGI [3]: 24.2 µM | TGI [4]: 16.3 µM | TGI [5]: > 100 µM | TGI [6]: 19.2 µM | TGI [7]: > 100 µM | TGI [8]: 24.8 µM | TGI [9]: 14.4 µM | TGI [10]: > 100 µM

Cc1c2ccc(N(C)c3ccnc(Nc4cccc(S(N)(=O)=O)c4)n3)cc2nn1C
GI50 [1]: 6.23 µM | TGI [1]: > 25 µM | GI50 [2]: 7.73 µM | TGI [2]: 24.7 µM | GI50 [3]: 6.01 µM | TGI [3]: > 17.1 µM | GI50 [4]: 2.39 µM | TGI [4]: > 20.4 µM | GI50 [5]: 11.7 µM | TGI [5]: > 25 µM | GI50 [6]: 5.96 µM | TGI [6]: > 23.1 µM | GI50 [7]: > 22.9 µM | TGI [7]: > 25 µM | GI50 [8]: 7.23 µM | TGI [8]: > 25 µM | GI50 [9]: 9.03 µM | TGI [9]: > 25 µM | GI50 [10]: 10.1 µM | TGI [10]: > 25 µM

CCN(CC)c1ccc2c(c1)Nc1cc(=C(C#N)C#N)c3ccccc3c1=N2
TGI [1]: > 100 µM | TGI [2]: > 100 µM | TGI [3]: > 100 µM | TGI [4]: > 100 µM | TGI [5]: > 100 µM | TGI [6]: > 100 µM | TGI [7]: > 100 µM | TGI [8]: > 100 µM | TGI [9]: > 100 µM | TGI [10]: > 100 µM

C=C(C=O)CCCC(C)[C@@H]1CCC23CC12CCC1[C@@]2(C)CCC(OC(C)=O)C(C)(C)C2CC(OC2OC(COC(C)=O)C(O)C(O)C2O)[C@]13C (stereo not given in full)
TGI [1]: 11.1 µM | TGI [2]: 10.9 µM | TGI [3]: 11.3 µM | TGI [4]: 11.4 µM | TGI [5]: 1.44 µM | TGI [6]: 11 µM | TGI [7]: 13.2 µM | TGI [8]: 16.1 µM | TGI [9]: 14.3 µM | TGI [10]: 7.9 µM

NC(=O)c1ccc(C2C3=C(CCCC3=O)OC3=C2C(=O)c2ccccc2C3=O)cc1 (stereo not given)
GI50 [1]: 0.228 µM | TGI [1]: 0.95 µM | GI50 [2]: 1.9 µM | TGI [2]: 3.67 µM | GI50 [3]: 0.493 µM | TGI [3]: 1.73 µM | GI50 [4]: 0.307 µM | TGI [4]: 1.03 µM | GI50 [5]: 0.383 µM | TGI [5]: 1.72 µM | GI50 [6]: 1.54 µM | TGI [6]: 2.91 µM | GI50 [7]: 1.38 µM | TGI [7]: 2.87 µM | GI50 [8]: 0.458 µM | TGI [8]: 2.05 µM | GI50 [9]: 1.35 µM | TGI [9]: 2.72 µM | GI50 [10]: 0.641 µM | TGI [10]: 2.12 µM

Cn1cc(CNCC2CCN(c3ncc(C(=O)NO)cn3)CC2)c2ccccc21
GI50 [1]: 0.0155 µM | TGI [1]: 52.1 µM | GI50 [2]: 0.0233 µM | TGI [2]: 0.169 µM | GI50 [3]: < 0.0108 µM | TGI [3]: 0.0307 µM | GI50 [4]: 0.021 µM | TGI [4]: 13.4 µM | GI50 [5]: 0.0147 µM | TGI [5]: 2.11 µM | GI50 [6]: 0.0247 µM | TGI [6]: 0.447 µM | GI50 [7]: 0.0251 µM | TGI [7]: 0.9 µM | GI50 [8]: 0.0131 µM | TGI [8]: 11.5 µM | GI50 [9]: 0.0128 µM | TGI [9]: 0.838 µM | GI50 [10]: 0.0245 µM | TGI [10]: 0.352 µM

Cc1ccc(NC(=O)Cn2c(Br)nc3c2c(=O)n(C)c(=O)n3C)cc1
GI50 [1]: 2.1 µM | TGI [1]: 4.57 µM | GI50 [2]: 4.32 µM | TGI [2]: 16.3 µM | GI50 [3]: 2.31 µM | TGI [3]: 5.57 µM | GI50 [4]: 1.94 µM | TGI [4]: 4.21 µM | GI50 [5]: 13.5 µM | TGI [5]: 33.2 µM | GI50 [6]: 2.13 µM | TGI [6]: 6 µM | GI50 [7]: 7.92 µM | TGI [7]: 23.7 µM | GI50 [8]: 3.39 µM | TGI [8]: 11.6 µM | GI50 [9]: 2.83 µM | TGI [9]: 9.7 µM | GI50 [10]: 5 µM | TGI [10]: 17.4 µM
